Experimental findings from ChEMBL document CHEMBL1201862, “PubChem BioAssay data set” (2004) are described below.

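Method: 48-hour compound exposure of cells in 96-well plates, five concentrations, linear interpolation of endpoints. At the GI50, growth is halved.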 The source made the active and inactive calls. No stated cut-off is given here; in the data, active = GI50 up to about 1.1 µM and inactive = higher.

What all share (test): DTP human tumour cell line panel, 48 h
Assay [1] concerns BT-549.
Assay [2] deals with CCRF-CEM.
In assay [3] the test system is HCT-116.
Assay [4] has as its system HCT-15.
For assay [5], the system named is HOP-92.
In assay [6] the test system is IGROV-1.
Assay [7] has as its system M14.
For assay [8], the system named is MDA-MB-435.
For assay [9], the system named is MDA-N.
The test system of assay [10] is NCI-H460.
Assay [11] concerns OVCAR-3.
Assay [12] has as its system OVCAR-5.
Assay [13] concerns OVCAR-8.
Assay [14] relates to SK-OV-3.
In assay [15] the test system is SNB-75.
Assay [16] has as its system SW-620.
Assay [17] relates to UACC-257.
In assay [18] the test system is UO-31.
Assay [19] relates to A498.

The term GI50 denotes the concentration giving 50% growth inhibition. As to `COc1cccc(C2CC(C)(O)Oc3cc4c(cc32)OCO4)c1` (stereo not drawn), the GI50 in assay [1] was 16.1 µM (inactive); in assay [2], 47.8 µM (inactive); in [3] it was 9.44 µM (inactive); in assay [4] it was 7.01 µM; in assay [5], 26.7 µM (inactive); in [6], 24 µM (inactive). The GI50 in assay [7] is 12.5 µM (inactive); in [8] it was 3.3 µM (inactive); in assay [9], 2.82 µM (inactive); in assay [10], 16.1 µM (inactive); in assay [11] it was 19.4 µM (inactive); in [12], 35.8 µM (inactive). Further, the GI50 in [13] was 29.6 µM (inactive); in assay [14] it was 16.9 µM (inactive); in assay [15], 18.6 µM (inactive); in assay [16], 7.31 µM (inactive); in assay [17] it was 37.6 µM (inactive); in assay [18], 23.3 µM (inactive).
Regarding `CCn1c2ccccc2n2c(=O)c3c(c(C#N)c12)CCCC3`, the GI50 was > 100 µM (inactive) in [19]; > 100 µM (inactive) in [1]; > 100 µM (inactive) in assay [2]; > 100 µM (inactive) in assay [3]; over 100 µM in assay [4]; > 100 µM (inactive) in assay [5]. The GI50 in assay [6], in assay [7], in [8], in [9], in [10] and in assay [11] was > 100 µM (inactive) each time. For the same compound, the GI50 in [12] is > 100 µM (inactive); in assay [13], > 100 µM (inactive); in assay [14], > 100 µM (inactive); in assay [16], > 100 µM (inactive); in [17] it was > 100 µM (inactive); in assay [18] it was 93.5 µM (inactive).
As to `O=C(NC(Cc1ccccc1)P(=O)(O)c1ccccc1)OCc1ccccc1` (stereo not drawn), the GI50 is > 100 µM (inactive) in assay [1]; > 100 µM (inactive) in assay [2]; > 100 µM (inactive) in assay [3]; over 100 µM in [4]; > 100 µM (inactive) in assay [5]; > 100 µM (inactive) in assay [6]. Further, the GI50 in assay [7], in assay [8], in assay [9], in assay [10], in assay [11] and in assay [12] was > 100 µM (inactive) in each case. Further, the GI50 in assay [13], in assay [14], in [15], in assay [16], in [17] and in assay [18] was > 100 µM (inactive) throughout.
Turning to `CNC1C(O)C(OC2C(N)CC(N)C(OC3OC(C(C)O)C(O)C(O)C3N)C2O)OCC1(C)O` (stereo not drawn), the GI50 in assay [19] was > 100 µM (inactive); in assay [1] it was > 100 µM (inactive); in assay [2], > 100 µM (inactive); in assay [3], > 100 µM (inactive); in [4] it was over 100 µM; in [6] it was > 100 µM (inactive). Further, the GI50 in assay [7], in assay [8], in [9], in assay [10], in assay [11] and in assay [12] was > 100 µM (inactive) in each case. Moreover, the GI50 in assay [13], in assay [14], in assay [15], in [16] and in assay [18] was > 100 µM (inactive) in each case.
Regarding `COc1ccc(C2NC3=C(CCCC3)C3(C#N)C(=O)N=C(N)C23C#N)cc1` (stereo not drawn), the GI50 in assay [19] was > 100 µM (inactive); in assay [1], > 100 µM (inactive); in assay [2], 23 µM (inactive); in assay [3], > 100 µM (inactive); in assay [4] it was over 100 µM; in assay [5] it was > 100 µM (inactive). Moreover, the GI50 in assay [6], in [7], in assay [8], in [9], in assay [10] and in assay [12] was > 100 µM (inactive) in each case. The GI50 in assay [13], in assay [14], in assay [16], in assay [17] and in assay [18] was > 100 µM (inactive) throughout.
As for `CC1(C)CC(=O)c2c(nc3c(ccc4ccccc43)c2-c2ccc(NC(=O)CCC(=O)Nc3ccc(-c4c5c(nc6c4ccc4ccccc46)CC(C)(C)CC5=O)cc3)cc2)C1`, the GI50 is > 100 µM (inactive) in assay [1]; > 100 µM (inactive) in [2]; > 100 µM (inactive) in assay [3]; over 100 µM in assay [4]; > 100 µM (inactive) in [5]; > 100 µM (inactive) in assay [6]. Also, the GI50 in assay [7], in assay [8], in assay [9], in assay [10], in assay [11] and in assay [12] was > 100 µM (inactive) each time. For the same compound, the GI50 in assay [13] is > 100 µM (inactive); in assay [14], > 100 µM (inactive); in [15], 25 µM (inactive); in assay [16] it was > 100 µM (inactive); in assay [17], > 100 µM (inactive); in assay [18], > 100 µM (inactive).
For `COC(=O)C([C@H]1CC[C@H](OCc2ccccc2)[C@@]1(O)COCc1ccccc1)C(C)(O)CCc1ccccc1` (stereo partly drawn), the GI50 in [19] is 15 µM (inactive); in [1], 16.7 µM (inactive); in assay [2], 6.92 µM (inactive); in [3] it was 10.7 µM (inactive); in [4] it was 13.5 µM; in assay [6], 10.9 µM (inactive). Besides, the GI50 was 10.6 µM (inactive) in assay [7]; 14.4 µM (inactive) in [8]; 13.1 µM (inactive) in [9]; 12.7 µM (inactive) in [11]; 13.5 µM (inactive) in assay [12]; 13.4 µM (inactive) in assay [13]. The GI50 in assay [14] is 27.1 µM (inactive); in assay [15] it was 2.07 µM (inactive); in assay [16] it was 13.5 µM (inactive); in assay [17], 13.8 µM (inactive); in assay [18], 10.7 µM (inactive).
For `CCOC(=O)N1c2c(c3ccccc3n2C(=O)OCC)C(=O)C(OC)N1C(=O)OCC` (stereo not drawn), the GI50 is 25.4 µM (inactive) in assay [19]; 60.7 µM (inactive) in assay [1]; 19.5 µM (inactive) in [2]; 26.5 µM (inactive) in assay [3]; 27.7 µM in assay [4]; 31.3 µM (inactive) in [5]. Also, the GI50 is 26.5 µM (inactive) in assay [6]; 38.4 µM (inactive) in assay [7]; 32.1 µM (inactive) in assay [8]; 33.2 µM (inactive) in assay [9]; 36.1 µM (inactive) in assay [10]; 30.2 µM (inactive) in assay [11]. In addition, the GI50 is 42 µM (inactive) in [12]; 21.7 µM (inactive) in assay [13]; 28.4 µM (inactive) in [14]; 31.7 µM (inactive) in assay [16]; 29.4 µM (inactive) in assay [17]; 33.7 µM (inactive) in assay [18].
For `Cc1nc(N)c(N2CCN(S(=O)(=O)N(Cc3ccccc3)Cc3ccccc3)CC2)c(O)n1`, the GI50 was > 10 µM (inactive) in assay [19]; 48.9 µM (inactive) in assay [1]; > 100 µM (inactive) in assay [2]; 28.1 µM (inactive) in assay [3]; over 100 µM in [4]; 28.5 µM (inactive) in assay [7]. The GI50 is 38.5 µM (inactive) in assay [8]; 85.1 µM (inactive) in [9]; 40.6 µM (inactive) in assay [10]; 20.6 µM (inactive) in assay [11]; 28 µM (inactive) in assay [12]; 35.2 µM (inactive) in assay [13]. In addition, the GI50 is 10.9 µM (inactive) in assay [15], 69.7 µM (inactive) in assay [16], 25.4 µM (inactive) in assay [17] and > 100 µM (inactive) in assay [18].
As for `O=C1CNc2cc(N3CCN(c4cccc(C(F)(F)F)c4)CC3)ccc2N1`, the GI50 in assay [1] was 42.8 µM (inactive); in assay [2], 38.4 µM (inactive); in assay [3] it was 35.7 µM (inactive); in assay [4], 38.9 µM; in assay [5] it was > 100 µM (inactive); in [6] it was 30.8 µM (inactive). Further, the GI50 is 18 µM (inactive) in [7]; 95.5 µM (inactive) in assay [8]; 84.5 µM (inactive) in assay [9]; 53 µM (inactive) in assay [10]; 27.5 µM (inactive) in assay [11]; 68.5 µM (inactive) in assay [12]. Also, the GI50 in [13] is 83.2 µM (inactive); in assay [14], > 100 µM (inactive); in [15], 84.7 µM (inactive); in [16] it was 51.2 µM (inactive); in assay [17] it was 37 µM (inactive); in [18], 24.7 µM (inactive).
On to `Fc1cccc2nc(-c3ccccc3)cc(OCc3ccccc3)c12`, for which the GI50 in assay [19] is > 100 µM (inactive); in assay [1], > 100 µM (inactive); in assay [2] it was > 100 µM (inactive); in assay [3], > 100 µM (inactive); in assay [4], over 100 µM; in assay [6], > 100 µM (inactive). In addition, the GI50 in [7], in assay [8], in [9], in [10], in assay [11] and in assay [12] was > 100 µM (inactive) each time. For the same compound, the GI50 was > 100 µM (inactive) in [13]; > 100 µM (inactive) in assay [14]; 65.6 µM (inactive) in [15]; > 100 µM (inactive) in [16]; > 100 µM (inactive) in assay [17]; > 100 µM (inactive) in [18].
